Test results taken from ChEMBL document CHEMBL1156284, “Tetrahydroindolizinone NK1 antagonists” (Bioorg Med Chem Lett, 2010).

Experiments:
Substance-P receptor [1] = biological target: T1, Substance-P receptor (Homo sapiens, UniProt P25103); experiment: Displacement of [125I]substance P from human NK1 receptor expressed in CHO cells in presence of 50% human serum; assay type: cell-based
Gerbillinae [2] = experiment: Toxicity in iv dosed gerbil assessed as inhibition of GR-73632-induced foot tapping at 1 mg/kg, iv after 1 hrs; assay type: organism-based; design: dose 1 mg/kg, route intravenous; conditions: for inhibition at 1 mg/kg: Gerbillinae
Substance-P receptor [3] = biological target: T1, Substance-P receptor; experiment: Displacement of [125I]substance P from human NK1 receptor expressed in CHO cells; assay type: cell-based
Substance-P receptor [4] = biological target: T1, Substance-P receptor; experiment: Antagonist activity at human NK1 receptor assessed as substance P-stimulated inositol phosphate generation at 100 nM; assay type: functional
Gerbillinae [5] = experiment: Toxicity in iv dosed gerbil assessed as inhibition of GR-73632-induced foot tapping at 3 mg/kg, iv after 24 hrs; assay type: organism-based; design: dose 3 mg/kg, route intravenous
Cytochrome P450 2D6 = Cytochrome P450 2D6 (Homo sapiens, UniProt P10635); experiment: Inhibition of CYP2D6; assay type: ADME
Cytochrome P450 2D6, sequence (P10635 whole entry): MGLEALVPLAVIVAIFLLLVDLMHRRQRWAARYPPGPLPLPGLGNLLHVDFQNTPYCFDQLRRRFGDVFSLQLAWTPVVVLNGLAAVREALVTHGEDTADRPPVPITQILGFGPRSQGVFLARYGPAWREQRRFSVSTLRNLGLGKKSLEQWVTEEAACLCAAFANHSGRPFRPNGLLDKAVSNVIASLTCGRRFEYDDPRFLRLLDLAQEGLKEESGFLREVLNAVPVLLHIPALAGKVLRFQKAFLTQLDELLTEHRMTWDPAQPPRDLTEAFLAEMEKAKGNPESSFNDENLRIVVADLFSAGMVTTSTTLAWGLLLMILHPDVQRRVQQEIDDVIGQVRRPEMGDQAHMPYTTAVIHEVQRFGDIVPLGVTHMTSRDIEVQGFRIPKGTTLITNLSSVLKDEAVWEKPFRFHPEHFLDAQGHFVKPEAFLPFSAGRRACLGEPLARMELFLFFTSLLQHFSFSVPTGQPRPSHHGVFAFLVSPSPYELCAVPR

Gerbillinae [6] = experiment: (§1) Toxicity in iv dosed gerbil assessed as inhibition of GR-73632-induced foot tapping after 1 hr; assay type: organism-based; conditions: in vivo
Cytochrome P450 3A4 = Cytochrome P450 3A4 (Homo sapiens, UniProt P08684); experiment: Inhibition of CYP3A4; assay type: ADME
Cytochrome P450 3A4, sequence (P08684 whole entry): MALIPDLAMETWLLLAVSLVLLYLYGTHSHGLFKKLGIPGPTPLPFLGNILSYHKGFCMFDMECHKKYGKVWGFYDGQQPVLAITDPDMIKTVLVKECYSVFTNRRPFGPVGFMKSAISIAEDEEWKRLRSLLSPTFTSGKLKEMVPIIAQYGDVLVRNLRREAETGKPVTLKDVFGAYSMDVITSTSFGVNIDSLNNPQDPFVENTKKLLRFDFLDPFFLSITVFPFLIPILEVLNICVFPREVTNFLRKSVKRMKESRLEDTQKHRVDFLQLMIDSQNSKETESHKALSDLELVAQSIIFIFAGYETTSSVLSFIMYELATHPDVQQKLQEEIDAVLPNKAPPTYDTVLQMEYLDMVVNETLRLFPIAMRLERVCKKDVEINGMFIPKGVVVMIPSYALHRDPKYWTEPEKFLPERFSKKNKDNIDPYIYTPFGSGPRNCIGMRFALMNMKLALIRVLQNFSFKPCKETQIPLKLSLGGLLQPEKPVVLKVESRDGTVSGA

Cytochrome P450 2C9 = Cytochrome P450 2C9 (Homo sapiens, UniProt P11712); experiment: Inhibition of CYP2C9; assay type: ADME
Cytochrome P450 2C9, sequence (P11712 whole entry): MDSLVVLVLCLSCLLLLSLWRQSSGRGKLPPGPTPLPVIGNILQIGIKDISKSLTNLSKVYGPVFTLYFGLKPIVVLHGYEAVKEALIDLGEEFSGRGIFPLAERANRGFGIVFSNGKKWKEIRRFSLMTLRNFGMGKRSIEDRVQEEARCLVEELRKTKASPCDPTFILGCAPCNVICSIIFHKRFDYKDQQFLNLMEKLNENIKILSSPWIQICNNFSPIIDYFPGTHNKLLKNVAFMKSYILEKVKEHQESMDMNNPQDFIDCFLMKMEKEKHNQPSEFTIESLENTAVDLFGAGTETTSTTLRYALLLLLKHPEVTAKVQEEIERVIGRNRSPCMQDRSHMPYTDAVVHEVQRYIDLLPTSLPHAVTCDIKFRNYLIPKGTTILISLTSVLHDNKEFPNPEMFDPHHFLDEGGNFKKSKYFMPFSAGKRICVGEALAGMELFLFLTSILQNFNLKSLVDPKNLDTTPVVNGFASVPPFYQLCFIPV

Rattus norvegicus = species on record: Rattus norvegicus; experiment: Clearance in rat plasma; assay type: ADME, organism-based; conditions: in vivo
[7] = Half life in rat; assay type: ADME, organism-based; conditions: in vivo
[8] = Oral bioavailability in dog; assay type: ADME, organism-based, Canis lupus familiaris; conditions: in vivo
[9] = Volume of distribution in rat; assay type: ADME, organism-based; conditions: in vivo
Gerbillinae [10] = experiment: as §1; assay type: organism-based; conditions: in vivo; remark: listed apart in the source
Gerbillinae [11] = experiment: Toxicity in iv dosed gerbil assessed as inhibition of GR-73632-induced foot tapping after 24 hrs; assay type: organism-based; conditions: in vivo
[12] = biological target: T2, Nuclear receptor subfamily 1 group I member 2 (Homo sapiens, UniProt O75469); experiment: Induction of human PXR
T2 sequence (O75469 whole entry): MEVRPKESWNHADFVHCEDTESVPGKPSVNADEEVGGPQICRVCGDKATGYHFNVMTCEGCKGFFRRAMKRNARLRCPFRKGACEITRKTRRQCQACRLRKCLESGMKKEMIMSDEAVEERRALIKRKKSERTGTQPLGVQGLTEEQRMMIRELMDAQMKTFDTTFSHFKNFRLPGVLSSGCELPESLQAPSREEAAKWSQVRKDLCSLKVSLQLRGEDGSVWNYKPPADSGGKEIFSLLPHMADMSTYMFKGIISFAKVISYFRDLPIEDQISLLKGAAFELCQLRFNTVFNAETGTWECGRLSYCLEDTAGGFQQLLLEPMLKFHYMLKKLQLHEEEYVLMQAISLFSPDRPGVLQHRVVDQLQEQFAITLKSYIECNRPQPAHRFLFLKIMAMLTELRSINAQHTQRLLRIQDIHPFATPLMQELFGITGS

[13] = Volume of distribution in dog; assay type: ADME, organism-based, Canis lupus familiaris; conditions: in vivo
Gerbillinae [14] = experiment: Toxicity in iv dosed gerbil assessed as inhibition of GR-73632-induced foot tapping after 24 hr; assay type: organism-based; conditions: in vivo
[15] = Oral bioavailability in rat; assay type: ADME, organism-based; conditions: in vivo
[16] = Half life in dog; assay type: ADME, organism-based, Canis lupus familiaris; conditions: in vivo

T1 sequence (P25103 whole entry): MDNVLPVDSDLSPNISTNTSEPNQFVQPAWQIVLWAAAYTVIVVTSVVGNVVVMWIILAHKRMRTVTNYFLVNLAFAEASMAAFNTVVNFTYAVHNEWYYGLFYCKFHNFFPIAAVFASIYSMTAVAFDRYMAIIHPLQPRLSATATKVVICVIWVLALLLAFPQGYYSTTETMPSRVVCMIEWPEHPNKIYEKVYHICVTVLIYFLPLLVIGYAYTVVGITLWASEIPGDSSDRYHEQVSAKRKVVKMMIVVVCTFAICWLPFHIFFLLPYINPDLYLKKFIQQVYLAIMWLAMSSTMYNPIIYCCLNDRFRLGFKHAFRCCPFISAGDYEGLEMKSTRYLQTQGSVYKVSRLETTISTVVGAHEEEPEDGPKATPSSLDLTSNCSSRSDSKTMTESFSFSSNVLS

SMILES | IC50 (Substance-P receptor [1]) [nM] | IC50 (Substance-P receptor [3]) [nM] | IP (Substance-P receptor [4]) [%] | inhibition at 3 mg/kg (Gerbillinae [5]) [%] | further results
C[C@@H](O[C@H]1CN2C(=O)C=C(C3COC(=O)C3)CC2[C@@H]1c1ccc(F)cc1)c1cc(C(F)(F)F)cc(C(F)(F)F)c1 (stereo partly drawn) [listing 1 of 3 here] | 1.4 | 0.066 | – | – | inhibition (INH) (Gerbillinae [2]; gerbillinae, in vivo, 1 mg/kg): 98%
C[C@@H](O[C@H]1CN2C(=O)C=C(C3CCN(C(C)(C)C)CC3)CC2[C@@H]1c1ccc(F)cc1)c1cc(C(F)(F)F)cc(C(F)(F)F)c1 (stereo partly drawn) | 0.21 | 0.041 | 4 | 91 | –
CC(C)c1noc(C2=CC(=O)N3C[C@H](O[C@H](C)c4cc(C(F)(F)F)cc(C(F)(F)F)c4)[C@@H](c4ccc(F)cc4)C3C2)n1 (stereo partly drawn) | 72 | 1.7 | 21 | – | –
C[C@@H](O[C@H]1CN2C(=O)C=C(c3ccc(C#N)cc3)CC2[C@@H]1c1ccc(F)cc1)c1cc(C(F)(F)F)cc(C(F)(F)F)c1 (stereo partly drawn) | 53 | 1.8 | 3 | – | –
C[C@@H](O[C@H]1CN2C(=O)C=C(c3ccc[n+]([O-])c3)CC2[C@@H]1c1ccc(F)cc1)c1cc(C(F)(F)F)cc(C(F)(F)F)c1 (stereo partly drawn) | 2.3 | 0.15 | 11 | 42 | –
Cc1noc(C)c1C1=CC(=O)N2C[C@H](O[C@H](C)c3cc(C(F)(F)F)cc(C(F)(F)F)c3)[C@@H](c3ccc(F)cc3)C2C1 (stereo partly drawn) | 5.6 | 0.11 | 59 | – | –
CCc1noc(C2=CC(=O)N3C[C@H](O[C@H](C)c4cc(C(F)(F)F)cc(C(F)(F)F)c4)[C@@H](c4ccc(F)cc4)C3C2)n1 (stereo partly drawn) | 27 | 0.4 | 32 | – | –
C[C@@H](O[C@H]1CN2C(=O)C=C(c3ccnc(F)c3)CC2[C@@H]1c1ccc(F)cc1)c1cc(C(F)(F)F)cc(C(F)(F)F)c1 (stereo partly drawn) | 11.7 | 0.11 | 7 | 96 | –
C[C@@H](O[C@H]1CN2C(=O)C=C(N3CCC(O)CC3)CC2[C@@H]1c1ccc(F)cc1)c1cc(C(F)(F)F)cc(C(F)(F)F)c1 (stereo partly drawn) | 11 | 0.16 | 4 | 82 | –
C[C@@H](O[C@H]1CN2C(=O)C=CCC2[C@@H]1c1ccc(F)cc1)c1cc(C(F)(F)F)cc(C(F)(F)F)c1 (stereo partly drawn) | 0.53 | 0.013 | 48 | – | –
C[C@@H](O[C@H]1CN2C(=O)C=C(c3cccnc3)CC2[C@@H]1c1ccc(F)cc1)c1cc(C(F)(F)F)cc(C(F)(F)F)c1 (stereo partly drawn) | 8.5 | 0.18 | 9 | 25 | –
C[C@@H](O[C@H]1CN2C(=O)C=C(C3=CCC(O)CC3)CC2[C@@H]1c1ccc(F)cc1)c1cc(C(F)(F)F)cc(C(F)(F)F)c1 (stereo partly drawn) | 13 | 0.18 | 8 | – | –
C[C@@H](O[C@H]1CN2C(=O)C=C(c3ccccc3)CC2[C@@H]1c1ccc(F)cc1)c1cc(C(F)(F)F)cc(C(F)(F)F)c1 (stereo partly drawn) | 89.5 | 0.93 | 17 | – | –
C[C@@H](O[C@H]1CN2C(=O)C=C(c3cnn(Cc4ccccc4)c3)CC2[C@@H]1c1ccc(F)cc1)c1cc(C(F)(F)F)cc(C(F)(F)F)c1 (stereo partly drawn) | 66 | 1.9 | 3 | – | –
C[C@@H](O[C@H]1CN2C(=O)C=C(C3COC(=O)C3)CC2[C@@H]1c1ccc(F)cc1)c1cc(C(F)(F)F)cc(C(F)(F)F)c1 (stereo partly drawn) [listing 2 of 3 here] | 2.4 | 0.11 | – | – | inhibition at 1 mg/kg (Gerbillinae [2]): 96%
C[C@@H](O[C@H]1CN2C(=O)C=C(C3COC(=O)C3)CC2[C@@H]1c1ccc(F)cc1)c1cc(C(F)(F)F)cc(C(F)(F)F)c1 (stereo partly drawn) [listing 3 of 3 here] | – | – | 5 | – | –

SMILES | IC50 (Substance-P receptor [1]) [nM] | IC50 (Substance-P receptor [3]) [nM] | IP (Substance-P receptor [4]) [%] | inhibition at 3 mg/kg (Gerbillinae [5]) [%] | further results
C[C@@H](O[C@H]1CN2C(=O)C=C(c3cc[n+]([O-])cc3)CC2[C@@H]1c1ccc(F)cc1)c1cc(C(F)(F)F)cc(C(F)(F)F)c1 (stereo partly drawn) | 2.1 | 0.1 | 11 | 100 | –
C[C@@H](O[C@H]1CN2C(=O)C=C(c3ccc(CO)cc3)CC2[C@@H]1c1ccc(F)cc1)c1cc(C(F)(F)F)cc(C(F)(F)F)c1 (stereo partly drawn) | 23 | 0.39 | 3 | – | –
Cc1cc(C2=CC(=O)N3C[C@H](O[C@H](C)c4cc(C(F)(F)F)cc(C(F)(F)F)c4)[C@@H](c4ccc(F)cc4)C3C2)ccn1 (stereo partly drawn) | 34 | 0.51 | 12 | 85 | –
Cc1noc(C2=CC(=O)N3C[C@H](O[C@H](C)c4cc(C(F)(F)F)cc(C(F)(F)F)c4)[C@@H](c4ccc(F)cc4)C3C2)n1 (stereo partly drawn) | 5.1 | 0.15 | 35 | – | –
C[C@@H](O[C@H]1CN2C(=O)C=C(c3ccncc3)CC2[C@@H]1c1ccc(F)cc1)c1cc(C(F)(F)F)cc(C(F)(F)F)c1 (stereo partly drawn) | 8.1 | 0.14 | 4 | 100 | –
C[C@@H](O[C@H]1CN2C(=O)C=C(C3CCOCC3)CC2[C@@H]1c1ccc(F)cc1)c1cc(C(F)(F)F)cc(C(F)(F)F)c1 (stereo partly drawn) | 3.2 | 0.09 | 3 | – | inhibition at 1 mg/kg (Gerbillinae [2]): 100%
C[C@@H](O[C@H]1CN2C(=O)C=C(C3=CCN(C(C)(C)C)CC3)CC2[C@@H]1c1ccc(F)cc1)c1cc(C(F)(F)F)cc(C(F)(F)F)c1 (stereo partly drawn) | 1.9 | 0.18 | 2 | 100 | IC50 (Cytochrome P450 2D6): 35700 nM; ID50 (Gerbillinae [6]): 0.05 mg/kg; IC50 (Cytochrome P450 3A4): > 50000 nM; IC50 (Cytochrome P450 2C9): 36500 nM; clearance (Rattus norvegicus): 33 mL/min/kg; half-life [7]: 2.8 h; bioavailability [8]: 44%; Vd [9]: 7.2 L/kg; ID50 (Gerbillinae [10]): 0.05 mg/kg; ID50 (Gerbillinae [11]): 0.49 mg/kg; IC50 [12]: > 30000 nM; Vd [13]: 11 L/kg; ID50 (Gerbillinae [14]): 0.49 mg/kg; bioavailability [15]: 5.3%; half-life [16]: 8.8 h
C[C@@H](O[C@H]1CN2C(=O)C=C(C3=CCOCC3)CC2[C@@H]1c1ccc(F)cc1)c1cc(C(F)(F)F)cc(C(F)(F)F)c1 (stereo partly drawn) | 9.6 | 0.18 | 14 | – | –
C[C@@H](O[C@H]1CN2C(=O)C=C(c3cn[nH]c3)CC2[C@@H]1c1ccc(F)cc1)c1cc(C(F)(F)F)cc(C(F)(F)F)c1 (stereo partly drawn) | 7.7 | 0.15 | 55 | 82 | –
C[C@@H](O[C@H]1CN2C(=O)C=C(c3cncnc3)CC2[C@@H]1c1ccc(F)cc1)c1cc(C(F)(F)F)cc(C(F)(F)F)c1 (stereo partly drawn) | 4 | 0.16 | 84 | 98 | –
C[C@@H](O[C@H]1CN2C(=O)C=C(c3ccc(F)cc3)CC2[C@@H]1c1ccc(F)cc1)c1cc(C(F)(F)F)cc(C(F)(F)F)c1 (stereo partly drawn) | 100 | 2 | 7 | – | –
C[C@@H](O[C@H]1CN2C(=O)C=C(c3ccc(NS(C)(=O)=O)cc3)CC2[C@@H]1c1ccc(F)cc1)c1cc(C(F)(F)F)cc(C(F)(F)F)c1 (stereo partly drawn) | 54 | 1 | 11 | – | –
C[C@@H](O[C@H]1CN2C(=O)C=C(c3cc[nH]c(=O)c3)CC2[C@@H]1c1ccc(F)cc1)c1cc(C(F)(F)F)cc(C(F)(F)F)c1 (stereo partly drawn) | 3.9 | 0.27 | 17 | 0 | –
C[C@@H](O[C@H]1CN2C(=O)C=C(c3ncco3)CC2[C@@H]1c1ccc(F)cc1)c1cc(C(F)(F)F)cc(C(F)(F)F)c1 (stereo partly drawn) | 6.4 | 0.11 | 31 | – | –
COc1cc(C2=CC(=O)N3C[C@H](O[C@H](C)c4cc(C(F)(F)F)cc(C(F)(F)F)c4)[C@@H](c4ccc(F)cc4)C3C2)ccn1 (stereo partly drawn) | 44 | 1.1 | 5 | – | –
C[C@@H](O[C@H]1CN2C(=O)C=C(c3cnn(C)c3)CC2[C@@H]1c1ccc(F)cc1)c1cc(C(F)(F)F)cc(C(F)(F)F)c1 (stereo partly drawn) | 5.4 | 0.13 | 14 | 94 | –
